Data taken from US9694016B2 (Novartis AG, priority 2013, dated 2017).

target: b-Raf (V600E) (Homo sapiens (Human), UniProt P15056, V600E); assay: biochemical
Sequence (P15056 whole entry V600E): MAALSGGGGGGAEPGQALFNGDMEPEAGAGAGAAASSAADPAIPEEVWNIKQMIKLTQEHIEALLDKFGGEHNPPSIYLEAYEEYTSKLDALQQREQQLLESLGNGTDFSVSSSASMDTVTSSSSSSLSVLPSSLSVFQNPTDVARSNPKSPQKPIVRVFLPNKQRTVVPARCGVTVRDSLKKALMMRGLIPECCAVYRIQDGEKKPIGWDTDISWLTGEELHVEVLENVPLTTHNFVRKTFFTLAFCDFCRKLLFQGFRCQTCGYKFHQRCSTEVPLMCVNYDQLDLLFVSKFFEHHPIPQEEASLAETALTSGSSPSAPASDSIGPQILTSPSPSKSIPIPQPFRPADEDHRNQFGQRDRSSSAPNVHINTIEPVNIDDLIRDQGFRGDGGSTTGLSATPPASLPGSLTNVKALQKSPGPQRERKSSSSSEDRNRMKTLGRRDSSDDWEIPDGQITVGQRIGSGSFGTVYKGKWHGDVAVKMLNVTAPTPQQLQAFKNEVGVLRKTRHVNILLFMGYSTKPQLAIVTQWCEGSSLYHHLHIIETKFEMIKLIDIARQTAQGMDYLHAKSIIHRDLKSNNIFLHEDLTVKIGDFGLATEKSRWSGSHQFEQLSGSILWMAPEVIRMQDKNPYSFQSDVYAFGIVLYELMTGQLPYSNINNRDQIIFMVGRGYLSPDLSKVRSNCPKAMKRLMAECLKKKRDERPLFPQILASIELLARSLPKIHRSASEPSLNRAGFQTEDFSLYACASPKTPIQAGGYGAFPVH

SMILES	IC50 [nM]
Cc1ccc(NC(=O)c2ccc(CO)c(C(F)(F)F)c2)cc1-c1cc(N2CCOCC2)c(=O)n(C)c1 [Example 462, 4-(hydroxymethyl)-N-(4-methyl-3-(1-methyl-5-morpholino-6-oxo-1,6-dihydropyridin-3-yl)phenyl)-3-(trifluoromethyl)benzamide]	3.7
Cc1ccc(C(=O)Nc2ccc(CN)c(C(F)(F)F)c2)cc1-c1cc(N2CCOCC2)c(=O)n(C)c1 [Example 467, N-(4-(aminomethyl)-3-(trifluoromethyl)phenyl)-4-methyl-3-(1-methyl-5-morpholino-6-oxo-1,6-dihydropyridin-3-yl)benzamide]	12.1
Cc1ccc(NC(=O)c2cc(CO)cc(C(F)(F)F)c2)cc1-c1cc(N2CCOCC2)c(=O)n(C)c1 [Example 469, 3-(hydroxymethyl)-N-(4-methyl-3-(1-methyl-5-morpholino-6-oxo-1,6-dihydropyridin-3-yl)phenyl)-5-(trifluoromethyl)benzamide]	3.1
Cc1ccc(NC(=O)c2ccnc(C(C)(F)F)c2)cc1-c1cc(N2CCOCC2)n(C)c(=O)c1 [Example 471, 2-(1,1-difluoroethyl)-N-(4-methyl-3-(1-methyl-6-morpholino-2-oxo-1,2-dihydropyridin-4-yl)phenyl)isonicotinamide]	1
Cc1ccc(NC(=O)c2cnnc(C(F)(F)F)c2)cc1-c1cc(N2CCOCC2)c(OC2CCOCC2)nn1 [Example 577, N-(4-methyl-3-(5-morpholino-6-((tetrahydro-2H-pyran-4-yl)oxy)pyridazin-3-yl)phenyl)-6-(trifluoromethyl)pyridazine-4-carboxamide]	0.6
Cc1ccc(NC(=O)c2ccnc(C(C)(C)C#N)c2)cc1-c1cc(N2CCOCC2)c(OC(C)C)nn1 [Example 596, 2-(2-cyanopropan-2-yl)-N-(3-(6-isopropoxy-5-morpholinopyridazin-3-yl)-4-methylphenyl)isonicotinamide]	1.3
CCNc1nc(-c2cc(C(=O)Nc3cccc(C(F)(F)F)c3)ccc2C)cc(N2CCOCC2)n1 [Example 710, 3-(2-(ethylamino)-6-morpholinopyrimidin-4-yl)-4-methyl-N-(3-(trifluoromethyl)phenyl)benzamide]	4
CCn1cc(C(=O)Nc2ccc(C)c(-c3cc4[nH]cnc4c(N4CCOCC4)n3)c2)c(C)n1 [Example 814, 1-ethyl-3-methyl-N-(4-methyl-3-(4-morpholino-1H-imidazo[4,5-c]pyridin-6-yl)phenyl)-1H-pyrazole-4-carboxamide]	32.1
Cc1ccc(NC(=O)c2cc(C3CC3)nn2C)cc1-c1cc2[nH]cnc2c(N2CCOCC2)n1 [Example 818, 3-cyclopropyl-1-methyl-N-(4-methyl-3-(4-morpholino-1H-imidazo[4,5-c]pyridin-6-yl)phenyl)-1H-pyrazole-5-carboxamide]	18.4
Cc1ccc(NC(=O)c2cccc(-c3nnco3)c2)cc1-c1cc2[nH]cnc2c(N2CCOCC2)n1 [Example 822, N-(4-methyl-3-(4-morpholino-1H-imidazo[4,5-c]pyridin-6-yl)phenyl)-3-(1,3,4-oxadiazol-2-yl)benzamide]	7.7
Cc1ccc(NC(=O)c2ccnc(C(C)(C)O)c2)cc1-c1cc2[nH]cnc2c(N2CCOCC2)n1 [Example 823, 2(2-hydroxypropan-2-yl)-N-(4-methyl-3-(4-morpholino-1H-imidazo[4,5-c]pyridin-6-yl)phenyl)isonicotinamide]	9.4
Cc1ccc(NC(=O)c2cccc(C(F)(F)F)c2)cc1-c1nc2c(c(N3CCOCC3)n1)CCNC2 [Example 834, N-(4-methyl-3-(4-morpholino-5,6,7,8-tetrahydropyrido[3,4-d]pyrimidin-2-yl)phenyl)-3-(trifluoromethyl)benzamide]	0.6
CNCc1ccc(C(=O)Nc2ccc(C)c(-c3cc(N4CCOCC4)c4nccn4c3)c2)cc1C(F)(F)F [Example 853, N-(4-methyl-3-(8-morpholinoimidazo[1,2-a]pyridin-6-yl)phenyl)-4-((methylamino)methyl)-3-(trifluoromethyl)benzamide]	2.4
CNCc1ccc(C(=O)Nc2cnc(C)c(-c3cc(N4CCOCC4)c4nccn4c3)c2)cc1C(F)(F)F [Example 885, N-(6-methyl-5-(8-morpholinoimidazo[1,2-a]pyridin-6-yl)pyridin-3-yl)-4-((methylamino)methyl)-3-(trifluoromethyl)benzamide]	12.3
Cc1ncc(NC(=O)c2cccc(C(F)(F)F)c2)cc1-c1cnc(OC[C@H](C)O)c(N2CCOCC2)c1 [Example 1022, (S)—N-(6′-(2-hydroxypropoxy)-2-methyl-5′-morpholino-[3,3′-bipyridin]-5-yl)-3-(trifluoromethyl)benzamide]	1.49
Cc1ccc(NC(=O)c2ccnc(C(C)(F)F)c2)cc1-c1ccnc(N2CCOCC2)c1 [Example 1137, 2-(1,1-difluoroethyl)-N-(4-methyl-3-(2-morpholinopyridin-4-yl)phenyl)isonicotinamide]	0.62

Results, then the compound that gave them:

IC50 [nM]	SMILES
0.9	CCOc1nnc(-c2cc(NC(=O)c3cccc(S(C)(=O)=O)c3)ccc2C)cc1N1CCOCC1 [Example 559, N-(3-(6-ethoxy-5-morpholinopyridazin-3-yl)-4-methylphenyl)-3-(methylsulfonyl)benzamide]
3.7	Cc1ncc(NC(=O)c2cccc(C(F)(F)F)c2)cc1-c1cc(N2CCOCC2)nc(NC[C@@H](C)O)n1 [Example 743, (R)—N-(5-(2-((2-hydroxypropyl)amino)-6-morpholinopyrimidin-4-yl)-6-methylpyridin-3-yl)-3-(trifluoromethyl)benzamide]
100	Cc1ccc(NC(=O)c2cn(C)nc2C)cc1-c1cc2[nH]cnc2c(N2CCOCC2)n1 [Example 815, 1,3-dimethyl-N-(4-methyl-3-(4-morpholino-1H-imidazo[4,5-c]pyridin-6-yl)phenyl)-1H-pyrazole-4-carboxamide]
17.4	Cc1ccc(NC(=O)c2cn(C(C)C)nc2C)cc1-c1cc2[nH]cnc2c(N2CCOCC2)n1 [Example 816, 1-isopropyl-3-methyl-N-(4-methyl-3-(4-morpholino-1H-imidazo[4,5-c]pyridin-6-yl)phenyl)-1H-pyrazole-4-carboxamide]
200	Cc1cc(C(=O)Nc2ccc(C)c(-c3cc4[nH]cnc4c(N4CCOCC4)n3)c2)n(C)n1 [Example 817, 1,3-dimethyl-N-(4-methyl-3-(4-morpholino-1H-imidazo[4,5-c]pyridin-6-yl)phenyl)-1H-pyrazole-5-carboxamide]
1.4	Cc1ccc(NC(=O)c2cc(C3CC3)on2)cc1-c1cc2[nH]cnc2c(N2CCOCC2)n1 [Example 820, 5-cyclopropyl-N-(4-methyl-3-(4-morpholino-1H-imidazo[4,5-c]pyridin-6-yl)phenyl)isoxazole-3-carboxamide]
2.6	Cc1ncc(NC(=O)c2cccc(C(F)(F)F)c2)cc1-c1cnc(O[C@H](C)CO)c(N2CCOCC2)c1 [Example 1021, (R)—N-(6′-((1-hydroxypropan-2-yl)oxy)-2-methyl-5′-morpholino-[3,3′-bipyridin]-5-yl)-3-(trifluoromethyl)benzamide]
